Laboratory results: patent publication US20110136141A1, “PEPTIDE REAGENTS AND METHOD FOR INHIBITING AUTOANTIBODY ANTIGEN BINDING” (Abbott Laboratories, priority 2009, published 2011)
The star is where a group is joined. Biotin = O=C1N[C@H]2[C@H](CS[C@H]2CCCCC(=O)*)N1

System: endogenous antibodies to cardiac troponin-I (binding to recombinant human cardiac troponin-I)
Assay: Inhibition of anti-cTnI autoantibody binding to cardiac troponin-I (microplate chemiluminescent immunoassay)
Method: Inhibitor working solutions: The peptides listed in Table 12 (obtained from Sigma-Genosys, PEPscreen custom library) were diluted in AxSYM® Troponin-I ADV Preincubation Diluent to give solutions ranging from 240 nmol/mL to 0 nmol/mL. An equimolar mixture of the peptides listed in Table 12 was prepared and diluted to give solutions ranging from 240 nmol/mL to 0 nmol/mL/.
Microplate preparation: Recombinant human cardiac troponin-I (cTnI, BiosPacific, Emeryville, Calif.) was coated on white high-binding flat-bottom 96-well polystyrene microplates (Costar) in phosphate buffer (100 μL, 0.2 M, pH 8, 4 μg/mL) at 38° C., for 1 h, then overcoated sequentially with bovine serum albumin and 2% wt/v sucrose in PBS.
Chemiluminescent detection conjugate: A murine anti-human IgG (subtype IgG2b, kappa;) was labeled with a chemiluminescent acridinium-9-carboxamide. This antibody recognized all human IgG subtypes while having no significant reactivity toward human IgM or IgA, or rabbit, sheep or goat IgG. […]
Chemiluminescent detection: The microplate was loaded into a Mithras microplate reader (Berthold Technologies Inc, Oak Ridge, Tenn.) equilibrated at 28° C. The chemiluminescence signal from each well was recorded for 2 s after the sequential addition of ARCHITECT® Pre-Trigger solution (100 μL) and ARCHITECT® Trigger solution (100 μL).

#5 (Biotin-ALSGMEGRKKKFES-NH2; SMILES CSCC[C@H](NC(=O)CNC(=O)[C@H](CO)NC(=O)[C@H](CC(C)C)NC(=O)[C@H](C)NC(=O)CCCC[C@@H]1SC[C@@H]2NC(=O)N[C@@H]21)C(=O)N[C@@H](CCC(=O)O)C(=O)NCC(=O)N[C@@H](CCCNC(=N)N)C(=O)N[C@@H](CCCCN)C(=O)N[C@@H](CCCCN)C(=O)N[C@@H](CCCCN)C(=O)N[C@@H](Cc1ccccc1)C(=O)N[C@@H](CCC(=O)O)C(=O)N[C@@H](CO)C(N)=O)
ratio of signal to the low control (S/LC): inhibition of the binding of endogenous antibodies to the cTnI antigen on the microplate (Example 1, FIG. 11, peptides of Table 12 ([Btn] amino-terminus), 240 to 0 nmol/mL, human serum sample mixed 1:1, overnight): greatest inhibition | ratio of signal to the low control (S/LC): inhibition of the binding of endogenous antibodies to the cTnI antigen on the microplate (Example 2, FIG. 12, peptides of Table 13 ([Ac] amino-terminus), procedure of Example 1): greatest inhibition
